Patent US12336981B2, “Compounds and compositions for the inhibition of NAMPT” (Valo Health, Inc., priority 2010, dated 2025)
Like-named read-outs stand apart in the source and are kept apart here.

Tests used:
NAMPT = molecular target: T1, NAMPT (Homo sapiens, UniProt P43490); assay: Biochemical inhibition assay: NAMPT enzymatic reaction, NMN quantified by mass spectrometry; conditions: read-out: Biochem IC50
T1 construct: His tag; host or cells: E. coli
Method in brief: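 Inhibition of E. coli-expressed His-tagged human NAMPT, measured as NMN formation by mass spectrometry after a 30 min room-temperature reaction containing 1 μM NAM, 100 μM PRPP and 2.5 mM ATP.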

A2780 cells = assay: In-vitro cell proliferation assay (SRB), A2780 cells; assay type: cell-based; conditions: Homo sapiens, A2780, 72 h, A2780 cells, 72 hours, read-out: A2780 IC50
Method in brief: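 Cells were plated overnight at 37° C., 5% CO2, then exposed to serially diluted compounds (0.1% DMSO final) for 72 hours. Viable cells were measured by sulforhodamine B staining after TCA fixation, read at 570 nm; media-only background was subtracted before % inhibition was calculated.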

T1 sequence (P43490 whole entry): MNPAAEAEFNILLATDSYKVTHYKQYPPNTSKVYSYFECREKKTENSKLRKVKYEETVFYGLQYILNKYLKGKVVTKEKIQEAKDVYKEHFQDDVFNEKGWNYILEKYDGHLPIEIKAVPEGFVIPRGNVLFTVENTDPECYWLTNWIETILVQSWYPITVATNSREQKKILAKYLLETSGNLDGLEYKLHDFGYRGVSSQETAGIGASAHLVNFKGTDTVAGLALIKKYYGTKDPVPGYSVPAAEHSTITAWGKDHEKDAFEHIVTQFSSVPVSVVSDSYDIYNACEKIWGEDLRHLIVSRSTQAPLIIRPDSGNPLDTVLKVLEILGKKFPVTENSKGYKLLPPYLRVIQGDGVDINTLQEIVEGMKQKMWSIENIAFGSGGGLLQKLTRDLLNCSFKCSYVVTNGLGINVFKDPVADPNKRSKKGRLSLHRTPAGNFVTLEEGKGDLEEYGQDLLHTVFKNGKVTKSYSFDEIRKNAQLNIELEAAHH

SMILES | IC50 (NAMPT; NAMPT enzymatic assay) [nM] | IC50 (A2780 cells; SRB) [nM] | IC50 (NAMPT; NAMPT enzymatic reaction) [nM] | IC50 (A2780 cells; SRB assay) [nM]
COc1cc(C)cc(S(=O)(=O)c2ccc(CNC(=O)c3cc4ccncc4s3)cc2)c1OC [N-({4-[(2,3-dimethoxy-5-methylbenzene)sulfonyl]phenyl}methyl)thieno[2,3-c]pyridine-2-carboxamide] | 6 | 2.7 |  | 
O=C(NCc1ccc(S(=O)(=O)c2c(F)cccc2Cl)cc1)c1ccc2nccn2c1 |  | 76.6 | 172 | 
CCCOc1cccc(S(=O)(=O)c2ccc(CNC(=O)c3ccc4nccn4c3)cc2)c1 |  | 6.3 | 4.2 | 
CCN(C)c1ncc(S(=O)(=O)c2ccc(CNC(=O)c3cnc4[nH]ncc4c3)cc2)s1 [N-[(4-{2-[ethyl(methyl)amino]-1,3-thiazole-5-sulfonyl}phenyl)methyl]-1H-pyrazolo[3,4-b]pyridine-5-carboxamide] | 3.6 | 1.5 |  | 
O=C(NCc1ccc(S(=O)(=O)c2ccc(-n3ccnc3)cc2)cc1)c1cnc2nccn2c1 | < 0.65 | 12.2 |  | 
COc1ccc(C)cc1S(=O)(=O)c1ccc(CNC(=O)c2ccc3nccn3c2)cc1 [N-({4-[(2-methoxy-5-methylbenzene)sulfonyl]phenyl}methyl)imidazo[1,2-a]pyridine-6-carboxamide] |  | 11.7 | 43.1 | 
CC(C)Oc1cc(F)ccc1S(=O)(=O)c1ccc(CNC(=O)c2cnc3nccn3c2)cc1 [N-[(4-{[4-fluoro-2-(propan-2-yloxy)benzene]sulfonyl}phenyl)methyl]imidazo[1,2-a]pyrimidine-6-carboxamide] | 3.5 | 15 |  | 
CCCn1cc(S(=O)(=O)c2ccc(CNC(=O)c3cc4cnccc4[nH]3)cc2)cn1 [N-{[4-(1-propyl-1H-pyrazole-4-sulfonyl)phenyl]methyl}-1H-pyrrolo[3,2-c]pyridine-2-carboxamide] | 14.9 | 5.9 |  | 
O=C(NCc1ccc(S(=O)(=O)c2cccc(OCCN3CCOCC3)c2)cc1)c1cc2cnccc2[nH]1 | 64.9 | 12.6 |  | 
CN(C)c1ccc(S(=O)(=O)c2ccc(CNC(=O)c3cc4ccncc4o3)cc2)cn1 [N-({4-[6-(dimethylamino)pyridine-3-sulfonyl]phenyl}methyl)furo[2,3-c]pyridine-2-carboxamide] | 3 | 1.8 |  | 
CS(=O)(=O)c1ccccc1S(=O)(=O)c1ccc(CNC(=O)c2cnc3[nH]ncc3c2)cc1 |  | 100 to 1000 | 202 | 
O=C(NCc1ccc(S(=O)(=O)c2cc(C(F)(F)F)ccn2)cc1)c1cnc2[nH]ncc2c1 [N-({4-[4-(trifluoromethyl)pyridine-2-sulfonyl]phenyl}methyl)-1H-pyrazolo[3,4-b]pyridine-5-carboxamide] | 28.3 | 11.8 |  | 
COc1cc(S(=O)(=O)c2ccc(CNC(=O)c3cc4ccncc4o3)cc2)ccc1F |  | 7 | 7.8 | 
O=C(NCc1ccc(S(=O)(=O)c2cccc(F)c2F)cc1)c1cnc2[nH]ncc2c1 |  | 279 | 82 | 
O=C(NCc1ccc(S(=O)(=O)c2cncc(F)c2)cc1)c1ccc2nccn2c1 [N-{[4-(5-fluoropyridine-3-sulfonyl)phenyl]methyl}imidazo[1,2-a]pyridine-6-carboxamide] | 27.8 | 13.7 |  | 
Cc1cccc(S(=O)(=O)c2ccc(CNC(=O)c3cc4cnccc4[nH]3)cc2)c1F |  | 7 | 75.8 | 
COc1ccc(F)c(S(=O)(=O)c2ccc(CNC(=O)c3cnc4[nH]ncc4c3)cc2)c1 [N-({4-[(2-fluoro-5-methoxybenzene)sulfonyl]phenyl}methyl)-1H-pyrazolo[3,4-b]pyridine-5-carboxamide] |  | 100 to 1000 | 139 | 
CCCCOc1ccc(S(=O)(=O)c2ccc(CNC(=O)c3cc4ccncc4o3)cc2)cc1 [N-({4-[(4-butoxybenzene)sulfonyl]phenyl}methyl)furo[2,3-c]pyridine-2-carboxamide] |  | 13 | 6.2 | 

SMILES | IC50 (NAMPT; NAMPT enzymatic assay) [nM] | IC50 (A2780 cells; SRB) [nM] | IC50 (NAMPT; NAMPT enzymatic reaction) [nM] | IC50 (A2780 cells; SRB assay) [nM]
Cc1cc(C(F)(F)F)ccc1S(=O)(=O)c1ccc(CNC(=O)c2cc3ccncc3o2)cc1 | 34.5 | 63.1 |  | 
O=C(NCc1ccc(S(=O)(=O)c2ccc(OC(F)(F)F)c(F)c2)cc1)c1cc2cnccc2[nH]1 [N-[(4-{[3-fluoro-4-(trifluoromethoxy)benzene]sulfonyl}phenyl)methyl]-1H-pyrrolo[3,2-c]pyridine-2-carboxamide] | 26.2 | 20.5 |  | 
CN(C)CCc1ccc(S(=O)(=O)c2ccc(CNC(=O)c3cnc4nccn4c3)cc2)cc1 | 2 | 18.1 |  | 
CC(C)Oc1cccc(S(=O)(=O)c2ccc(CNC(=O)c3cnc4nccn4c3)cc2)c1F [N-[(4-{[2-fluoro-3-(propan-2-yloxy)benzene]sulfonyl}phenyl)methyl]imidazo[1,2-a]pyrimidine-6-carboxamide] | 1.8 | 7 |  | 
COc1ccc(C(C)(C)C)cc1S(=O)(=O)c1ccc(CNC(=O)c2ccc3nccn3c2)cc1 [N-({4-[(5-tert-butyl-2-methoxybenzene)sulfonyl]phenyl}methyl)imidazo[1,2-a]pyridine-6-carboxamide] | 29 | 6.77 |  | 
CCCOc1ccccc1NS(=O)(=O)c1ccc(CNC(=O)c2cc3cnccc3[nH]2)cc1 [N-({4-[(2-propoxyphenyl)sulfamoyl]phenyl}methyl)-1H-pyrrolo[3,2-c]pyridine-2-carboxamide] |  |  | 52 | 100
O=C(NCc1ccc(S(=O)(=O)c2cccc3c2OCC3)cc1)c1cc2ccncc2s1 [N-{[4-(2,3-dihydro-1-benzofuran-7-sulfonyl)phenyl]methyl}thieno[2,3-c]pyridine-2-carboxamide] | 2.2 | 3 |  | 
O=C(NCc1ccc(S(=O)(=O)Cc2ccccc2)cc1)c1cc2cnccc2[nH]1 [N-{[4-(phenylmethane)sulfonylphenyl]methyl}-1H-pyrrolo[3,2-c]pyridine-2-carboxamide] |  |  | 29 | 302
COc1cc(S(=O)(=O)c2ccc(CNC(=O)c3cnc4nccn4c3)cc2)ccc1Cl |  | 5.2 | 2.7 | 
O=C(NCc1ccc(S(=O)(=O)c2ccccc2)cc1)c1cc(-c2cccnc2)[nH]n1 [N-{[4-(benzenesulfonyl)phenyl]methyl}-5-(pyridin-3-yl)-1H-pyrazole-3-carboxamide] |  |  | 23 | 11800
CCc1ccccc1S(=O)(=O)c1ccc(CNC(=O)c2cc3ccncc3s2)cc1 [N-({4-[(2-ethylbenzene)sulfonyl]phenyl}methyl)thieno[2,3-c]pyridine-2-carboxamide] |  |  | 5 | 2.9
CCOc1cc(S(=O)(=O)c2ccc(CNC(=O)c3cc4cnccc4[nH]3)cc2)ccc1F |  | 4.4 | 82.4 | 
O=C(NCc1ccc(S(=O)(=O)c2cc(F)cc(C(F)(F)F)c2)cc1)c1cnc2[nH]ncc2c1 [N-[(4-{[3-fluoro-5-(trifluoromethyl)benzene]sulfonyl}phenyl)methyl]-1H-pyrazolo[3,4-b]pyridine-5-carboxamide] | 11.2 | 3.45 |  | 
CCOc1cc(F)ccc1S(=O)(=O)c1ccc(CNC(=O)c2cc3ccncc3o2)cc1 |  | 6.9 | 7.7 | 
CCCOc1ccc(S(=O)(=O)c2ccc(CNC(=O)c3cc4ccncc4s3)cc2)cc1Cl |  | 17.4 | 15.1 | 
O=C(NCc1ccc(S(=O)(=O)c2ccc(Cl)cc2C(F)(F)F)cc1)c1cnc2nccn2c1 | 7.9 | 68.4 |  | 
CC(C)Oc1cc(F)ccc1S(=O)(=O)c1ccc(CNC(=O)c2ccc3nccn3c2)cc1 | 22.2 | 2.1 |  | 
